These results are taken from ChEMBL document CHEMBL1135370, “Selective urokinase-type plasminogen activator (uPA) inhibitors. Part 2: (3-Substituted-5-halo-2-pyridinyl)guanidines” (Bioorg Med Chem Lett, 2002).

For assay [1], the target named is T1, Tissue-type plasminogen activator (Homo sapiens, UniProt P00750). Briefly: Ability to inhibit tissue plasminogen activator (quadratech) and S-2444 as substrate at concentration of 1 mM.
Target sequence in this assay (P00750 36-562 limits assumed): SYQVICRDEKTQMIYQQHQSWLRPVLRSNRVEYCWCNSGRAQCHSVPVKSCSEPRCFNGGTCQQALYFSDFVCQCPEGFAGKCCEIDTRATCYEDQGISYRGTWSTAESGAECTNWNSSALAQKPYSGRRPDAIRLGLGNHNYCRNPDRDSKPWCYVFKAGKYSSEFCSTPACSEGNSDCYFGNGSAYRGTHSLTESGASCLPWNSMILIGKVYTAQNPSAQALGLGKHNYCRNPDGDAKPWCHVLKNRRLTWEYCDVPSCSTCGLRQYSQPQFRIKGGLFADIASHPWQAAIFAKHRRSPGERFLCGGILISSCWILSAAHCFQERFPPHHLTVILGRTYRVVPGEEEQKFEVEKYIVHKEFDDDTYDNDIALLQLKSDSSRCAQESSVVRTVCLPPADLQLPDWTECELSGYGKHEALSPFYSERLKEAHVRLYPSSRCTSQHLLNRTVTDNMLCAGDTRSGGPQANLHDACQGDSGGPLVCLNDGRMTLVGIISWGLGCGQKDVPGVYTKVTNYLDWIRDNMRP
Assay [2] deals with T2, Plasminogen (Homo sapiens, UniProt P00747). Briefly: In vitro inhibition of human plasmin. Set-up: concentration or dose not given beside the values. The conditions noted are these: concentration not given here.
T2 sequence (P00747 97-580 limits assumed): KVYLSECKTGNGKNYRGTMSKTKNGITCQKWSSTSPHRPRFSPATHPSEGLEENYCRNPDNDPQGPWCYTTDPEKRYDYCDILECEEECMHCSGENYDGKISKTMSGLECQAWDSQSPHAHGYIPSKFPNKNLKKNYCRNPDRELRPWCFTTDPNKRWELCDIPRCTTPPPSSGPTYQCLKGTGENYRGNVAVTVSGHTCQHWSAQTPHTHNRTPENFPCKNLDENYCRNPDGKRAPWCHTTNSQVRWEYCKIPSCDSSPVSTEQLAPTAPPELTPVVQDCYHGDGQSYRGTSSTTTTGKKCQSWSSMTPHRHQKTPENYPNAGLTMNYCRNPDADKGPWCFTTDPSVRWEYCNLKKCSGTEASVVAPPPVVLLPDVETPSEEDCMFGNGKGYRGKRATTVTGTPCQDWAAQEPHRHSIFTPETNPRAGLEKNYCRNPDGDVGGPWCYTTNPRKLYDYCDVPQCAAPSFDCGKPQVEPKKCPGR
T2 sequence (P00747 581-810 limits assumed): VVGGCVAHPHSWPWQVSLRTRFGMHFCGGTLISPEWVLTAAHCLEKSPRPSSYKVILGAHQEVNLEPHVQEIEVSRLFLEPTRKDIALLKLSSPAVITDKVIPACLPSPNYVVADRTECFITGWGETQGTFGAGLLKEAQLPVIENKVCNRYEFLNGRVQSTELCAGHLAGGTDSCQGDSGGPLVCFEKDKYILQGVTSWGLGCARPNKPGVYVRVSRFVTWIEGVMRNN
Assay [3] concerns the target Urokinase-type plasminogen activator (Homo sapiens, UniProt P00749). Briefly: In vitro inhibition of human urokinase Plasminogen Activator.
Assay [4] deals with T1, Tissue-type plasminogen activator. Briefly: Ability to inhibit tissue plasminogen activator (quadratech) and S-2444 as substrate.
Target sequence in this assay (P00750 whole entry): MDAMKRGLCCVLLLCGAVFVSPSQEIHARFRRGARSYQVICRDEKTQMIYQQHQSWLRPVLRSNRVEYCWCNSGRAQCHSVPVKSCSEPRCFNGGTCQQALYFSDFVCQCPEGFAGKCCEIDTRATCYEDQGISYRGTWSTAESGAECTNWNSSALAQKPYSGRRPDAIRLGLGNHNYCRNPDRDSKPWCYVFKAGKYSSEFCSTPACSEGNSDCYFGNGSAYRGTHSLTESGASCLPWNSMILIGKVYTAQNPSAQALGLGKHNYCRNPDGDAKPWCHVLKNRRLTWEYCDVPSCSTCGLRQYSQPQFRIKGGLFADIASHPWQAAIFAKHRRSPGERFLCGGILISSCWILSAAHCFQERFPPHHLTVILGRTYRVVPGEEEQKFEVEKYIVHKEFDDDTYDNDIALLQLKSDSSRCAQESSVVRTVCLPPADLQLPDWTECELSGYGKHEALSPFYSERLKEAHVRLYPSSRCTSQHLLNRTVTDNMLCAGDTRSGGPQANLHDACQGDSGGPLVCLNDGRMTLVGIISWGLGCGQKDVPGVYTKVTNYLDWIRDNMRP
For assay [5], the target named is T2, Plasminogen. As to the kind of experiment: Ability to inhibit plasmin using human plasmin (quadratech) and Chromozym-PL (boehringer) as substrate.
Assay [6] addresses T2, Plasminogen. As to the kind of experiment: Ability to inhibit plasmin using human plasmin (quadratech) and Chromozym-PL (boehringer) as substrate at concentration of 100 uM.
For assay [7], the target named is T1, Tissue-type plasminogen activator. Briefly: Ability to inhibit tissue plasminogen activator (quadratech) and S-2444 as substrate at concentration of 300 uM.
Target sequence in this assay (P00750 36-562 limits assumed): as the sequence (P00750 36-562 limits assumed) above
Assay [8] has the same target. Briefly: Ability to inhibit human tissue plasminogen activator stimulator at concentration of 1 uM.
Target sequence in this assay (P00750 36-562 limits assumed): as above
For assay [9], the target named is T2, Plasminogen. As to the kind of experiment: Ability to inhibit human plasmin using Chromozym-PL as substrate at concentration of 1 uM.

As for `CN(Cc1ccccc1)C(=O)/C=C/c1cc(Cl)cnc1N=C(N)N`, the inhibition (in assay [1]; against Plasminogen [2]) was less than 50% throughout. For the same molecule, the Ki (commonly the dissociation constant of the complex between target and ligand, obtained from inhibition or displacement) in assay [3] came out at 2 µM.
Turning to `N=C(N)Nc1ncc(Cl)cc1C#Cc1ccccc1`, the inhibitory constant (Ki) worked out at 65.9 µM in assay [4] and 218 µM at Plasminogen [5].
With `N=C(N)Nc1ncc(Cl)cc1/C=C/c1cccc(C(=O)O)c1`, the inhibition (as a rule, how much of the control response was suppressed) on Plasminogen [6] was less than 50%.
In the case of `COCCOc1cc(Cl)cnc1N=C(N)N`, the inhibition (in [1]; against Plasminogen [2]) was less than 50% each time. Further, the Ki in assay [3] worked out at 16.4 µM.
For the molecule `CNC(=O)/C=C/c1cc(Cl)cnc1N=C(N)N`, the inhibition (in assay [1]; against Plasminogen [2]) was less than 50% in each case. In assay [3], this molecule returned a Ki of 1.28 µM.
Take `N=C(N)Nc1ncc(Cl)cc1OCC(=O)NCc1ccccc1`: the inhibition (in assay [1]; against Plasminogen [2]) was less than 50% each time.
As for `N=C(N)Nc1ncc(Cl)cc1/C=C/c1ccc2c(c1)OCO2`, the inhibition in assay [7] is 50%; against Plasminogen [2], less than 50%. The same molecule showed an inhibition constant (Ki) in [3] of 0.49 µM.
Turning to `N=C(N)Nc1ncc(Cl)cc1OCc1ccccc1`, the inhibition (in assay [1]; on Plasminogen [2]) was less than 50% each time. Besides, in assay [3], the Ki turned out to be 0.92 µM.
`N=C(N)Nc1ncc(Cl)cc1/C=C/c1ccccn1`: the Ki was determined as 258 µM in assay [4] and 1.6 µM in assay [3]. In addition, the inhibition at Plasminogen [2] is less than 50%.
In the case of `COc1ccc(/C=C/c2cc(Cl)cnc2N=C(N)N)cc1`, the Ki in assay [4] is 60.1 µM; at Plasminogen [5], 42.5 µM; in assay [3] it was 0.69 µM.
Take `N=C(N)Nc1ncc(Cl)cc1Oc1ccccc1`: the Ki in [4] was found to be 342 µM; in assay [3], 2.13 µM. The molecule also came in with an inhibition against Plasminogen [2] of less than 50%.
Turning to `NC(N)=Nc1ncc(Cl)cc1/C=C/c1cccc(C(=O)O)c1`, the Ki in assay [4] turned out to be 52 µM; in assay [3], 0.17 µM.
Take `N=C(N)Nc1ncc(Cl)cc1/C=C/C(=O)N1CCOCC1`: the inhibition (in [1]; on Plasminogen [2]) was less than 50% in each case. For the same molecule, the Ki in [3] stood at 2.1 µM.
With `N=C(N)Nc1ncc(Cl)cc1/C=C/C(=O)O`, the inhibition in [8] was less than 50%. At Plasminogen [9], the Ki worked out at 279 µM.
Molecule `NC(N)=Nc1ncc(Cl)cc1OCC(=O)NCc1ccccc1` registered an inhibitory constant (Ki) in assay [3] of 16.1 µM.
The molecule `N=C(N)Nc1ncc(Cl)cc1/C=C/C1CCCCC1` returned a Ki in assay [4] of 71.5 µM. This molecule also registered an inhibition against Plasminogen [2] of less than 50%.
On to `N=C(N)Nc1ncc(Cl)cc1OCC(=O)O`, for which the inhibition (in assay [1]; on Plasminogen [2]) was less than 50% each time.
Take `N=C(N)Nc1ncc(Cl)cc1CCC(=O)O`: the inhibition (in [1]; on Plasminogen [2]) was less than 50% throughout.
Consider `N=C(N)Nc1ncc(Cl)cc1/C=C/c1ccccc1`, for which, in assay [4], affinity was put at a Ki of 53.8 µM. The molecule further displayed an inhibition at Plasminogen [2] of less than 50%.
Consider `N=C(N)Nc1ncc(Cl)cc1-c1ccccc1`, for which the inhibition (in assay [1]; at Plasminogen [2]) was less than 50% throughout. This molecule also displayed a Ki in assay [3] of 166 µM.
`N=C(N)Nc1ncc(Cl)cc1/C=C/C(=O)NCc1ccccc1`: the inhibition (in [1]; on Plasminogen [2]) was less than 50% in each case. This molecule registered a Ki in assay [3] of 0.77 µM.
